Data from ChEMBL document CHEMBL1132323, “Anti-Helicobacter pylori agents. 3. 2-[(Arylalkyl)guanidino]-4-furylthiazoles” (1999).
In brackets after ≈: the same amount, converted by molar mass.

Legend:
[1] = system: Helicobacter pylori; experiment: Minimum inhibitory concentration that inhibited macroscopic colony growth of Helicobacter pylori; type: functional
[2] = molecular target: Histamine H2 receptor (Cavia porcellus) (UniProt P47747); experiment: Histamine H2 receptor antagonism in isolated guinea pig right atrium at concentration of 1*10e-6 g/mL of histamine hydrochloride; type: functional, tissue-based; conditions: Cardiac atrium
Sequence of Histamine H2 receptor (Cavia porcellus) (P47747 whole entry, the tested form may be a part): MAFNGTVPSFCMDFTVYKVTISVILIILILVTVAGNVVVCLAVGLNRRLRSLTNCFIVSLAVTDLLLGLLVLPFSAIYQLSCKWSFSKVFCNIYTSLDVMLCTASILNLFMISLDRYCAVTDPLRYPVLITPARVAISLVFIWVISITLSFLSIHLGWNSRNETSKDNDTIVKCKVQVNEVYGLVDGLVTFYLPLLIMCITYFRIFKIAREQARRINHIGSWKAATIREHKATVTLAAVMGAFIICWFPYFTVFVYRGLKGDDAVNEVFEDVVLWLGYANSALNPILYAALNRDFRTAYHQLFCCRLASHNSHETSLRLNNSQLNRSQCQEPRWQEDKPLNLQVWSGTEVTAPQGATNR

[3] = system: Rattus norvegicus; experiment: Inhibition of histamine stimulated gastric acid secretion in lumen perfused stomach of anesthetized rats at 1 mg/kg i.v. dose; type: functional; conditions: route intravenous
[4] = system: Neisseria meningitidis; experiment: Antimicrobial activity against Neisseria meningitidis; type: functional
[5] = system: Campylobacter jejuni; experiment: Antimicrobial activity against Campylobacter jejuni; type: functional
[6] = system: Neisseria gonorrhoeae; experiment: Antimicrobial activity against Neisseria gonorrhoeae; type: functional
[7] = system: Clostridioides difficile; experiment: (§1) Antimicrobial activity against Clostridium difficile; type: functional
[8] = system: Bacteroides fragilis; experiment: Antimicrobial activity against Bacteroides fragilis; type: functional
[9] = system: Clostridium perfringens; experiment: (§2) Antimicrobial activity against Clostridium perfringens; type: functional
[10] = system: Helicobacter pylori; experiment: Antimicrobial activity against Helicobacter pylori; type: functional
[11] = system: Clostridium perfringens; experiment: as §2; type: functional, organism-based
[12] = system: Clostridioides difficile; experiment: as §1; type: functional, organism-based

| Compound | MIC [1] [µg/mL] | inhibition [2] [%] | also measured |
| --- | --- | --- | --- |
| Cc1ncc([N+](=O)[O-])n1CCO [METRONIDAZOLE] | 5.4 (≈ 31.6 µM) |  |  |
| COc1ccc(CC/N=C(\N)Nc2nc(-c3ccc(CNC(C)=O)o3)cs2)cc1 | 0.9 (≈ 2.18 µM) | 27 | inhibition in vivo at 1 mg/kg [3]: 5% |
| COc1ccccc1C/N=C(\N)Nc1nc(-c2ccc(CNC(C)=O)o2)cs1 |  | 26 |  |
| CC(=O)NCc1ccc(-c2csc(NC(=N)NCCNc3ccccc3)n2)o1 | 1.79 (≈ 4.49 µM) |  |  |
| COc1ccccc1/N=C(\N)Nc1nc(-c2ccc(CNC(C)=O)o2)cs1 | 0.24 (≈ 0.623 µM) |  |  |
| CN/C(=N\CCSCc1nc[nH]c1C)NC#N [CIMETIDINE] | 1130 (≈ 4480 µM) |  | inhibition in vivo at 1 mg/kg [3]: 53% |
| CC(=O)NCc1ccc(-c2csc(NC(=N)NCCCc3ccccc3)n2)o1 |  | 40 |  |
| COc1ccccc1OCC/N=C(\N)Nc1nc(-c2ccc(CNC(C)=O)o2)cs1 | 2.5 (≈ 5.82 µM) |  |  |
| CC(=O)NCc1ccc(-c2csc(NC(=N)NCCc3ccncc3)n2)o1 | 1.92 (≈ 4.99 µM) |  |  |
| COc1ccccc1CC/N=C(\N)Nc1nc(-c2cc(CNC(C)=O)c(C)o2)cs1 | 0.046 (≈ 0.108 µM) | 0 | MIC [4]: > 100 µg/mL; MIC [5]: 23 µg/mL (≈ 53.8 µM); MIC [6]: > 100 µg/mL; MIC [7]: > 100 µg/mL; MIC [8]: > 100 µg/mL; MIC [9]: > 100 µg/mL |
| COc1cccc(C/N=C(\N)Nc2nc(-c3ccc(CNC(C)=O)o3)cs2)c1 |  | 28 |  |
| CC(=O)NCc1ccc(-c2csc(NC(=N)NCc3ccccc3C)n2)o1 |  | 88 |  |
| (2,5-Dihydroxy-4,7-dioxo-[1,3,2]dioxabismepan-5-yl)-acetic acid | 18 |  |  |
| COc1ccc(C/N=C(\N)Nc2nc(-c3ccc(CNC(C)=O)o3)cs2)cc1 | 0.28 (≈ 0.701 µM) |  |  |
| CC(=O)NCc1ccc(-c2csc(NC(=N)NCc3ccccc3Cl)n2)o1 |  | 50 |  |
| CC[C@H]1OC(=O)[C@H](C)[C@@H](O[C@H]2C[C@@](C)(OC)[C@@H](O)[C@H](C)O2)[C@H](C)[C@@H](O[C@@H]2O[C@H](C)C[C@H](N(C)C)[C@H]2O)[C@](C)(OC)C[C@@H](C)C(=O)[C@H](C)[C@@H](O)[C@]1(C)O [CLARITHROMYCIN] | 0.057 (≈ 0.0762 µM) |  |  |
| COc1cccc(CC/N=C(\N)Nc2nc(-c3ccc(CNC(C)=O)o3)cs2)c1 | 0.36 (≈ 0.871 µM) | 70 | inhibition in vivo at 1 mg/kg [3]: 65% |
| CCOc1ccccc1C/N=C(\N)Nc1nc(-c2ccc(CNC(C)=O)o2)cs1 |  | 42 |  |

| Compound | MIC [1] [µg/mL] | inhibition [2] [%] | also measured |
| --- | --- | --- | --- |
| CC(=O)NCc1ccc(-c2csc(NC(=N)NCc3ccco3)n2)o1 |  | 46 |  |
| CC(=O)NCc1ccc(-c2csc(NC(=N)NCCc3ccccn3)n2)o1 | 0.73 (≈ 1.9 µM) | 0 |  |
| COc1ccccc1CC/N=C(\N)Nc1nc(-c2cc(-c3ccccc3)c(CNC(C)=O)o2)cs1 | 9.47 (≈ 19.3 µM) |  |  |
| CC(=O)NCc1ccc(-c2csc(NC(=N)NCCc3cccs3)n2)o1 | 0.112 (≈ 0.288 µM) | 83 | inhibition in vivo at 1 mg/kg [3]: 21% |
| CC(=O)NCc1ccc(-c2csc(NC(=N)NCCc3ccccc3N)n2)o1 | 1.01 (≈ 2.53 µM) |  |  |
| COc1ccccc1CC/N=C(\N)Nc1nc(-c2cc(C)c(CNC(C)=O)o2)cs1 | 0.03 (≈ 0.0702 µM) | 0 |  |
| CC(=O)NCc1ccc(-c2csc(NC(=N)NCCc3ccccc3)n2)o1 | 0.13 (≈ 0.339 µM) | 71 | inhibition in vivo at 1 mg/kg [3]: 24% |
| COc1ccccc1CC/N=C(\N)Nc1nc(-c2cc(CNC(C)=O)co2)cs1 | 2.21 (≈ 5.34 µM) |  |  |
| CC1(C)S[C@@H]2[C@H](NC(=O)[C@H](N)c3ccc(O)cc3)C(=O)N2[C@H]1C(=O)O [AMOXICILLIN] |  |  | MIC [4]: 0.056 µg/mL (≈ 0.153 µM); MIC [5]: 2.2 µg/mL (≈ 6.02 µM); MIC [6]: 7.7 µg/mL (≈ 21.1 µM); MIC [7]: 0.28 µg/mL (≈ 0.766 µM); MIC [8]: 2.1 µg/mL (≈ 5.75 µM); MIC [10]: 0.021 µg/mL (≈ 0.0575 µM); MIC [9]: 0.027 µg/mL (≈ 0.0739 µM) |
| CC(=O)NCc1ccc(-c2csc(NC(=N)NCCc3c[nH]cn3)n2)o1 | 31 (≈ 83 µM) |  |  |
| CC(=O)NCc1ccc(-c2csc(NC(=N)NCCc3ccccc3[N+](=O)[O-])n2)o1 | 0.14 (≈ 0.327 µM) | 66 | inhibition in vivo at 1 mg/kg [3]: 39% |
| CC(=O)NCc1ccc(-c2csc(NC(=N)NCc3ccccc3O)n2)o1 | 5.8 (≈ 15 µM) |  |  |
| BISMUTH SUBSALICYLATE |  |  | MIC [4]: 12.5 µg/mL; MIC [5]: 7.4 µg/mL; MIC [11]: > 100 µg/mL; MIC [6]: 4.7 µg/mL; MIC [8]: 50 µg/mL; MIC [12]: 50 µg/mL; MIC [10]: 8.7 µg/mL |
| CC(=O)NCc1ccc(-c2csc(NC(=N)NCCc3ccco3)n2)o1 | 0.24 (≈ 0.643 µM) | 63 | inhibition in vivo at 1 mg/kg [3]: 0% |
| CC(=O)NCc1ccc(-c2csc(NC(=N)NCc3ccccc3)n2)o1 |  | 35 |  |
| CC(=O)NCc1ccc(-c2csc(NC(=N)NCCc3ccccc3NC(C)=O)n2)o1 | 4.1 (≈ 9.31 µM) |  |  |
| COc1ccccc1CC/N=C(\N)Nc1nc(-c2ccc(CNC(C)=O)o2)cs1 | 0.052 (≈ 0.126 µM) | 67 | inhibition in vivo at 1 mg/kg [3]: 54% |
